Measurements published in patent US12178825B2, “Method and compositions for forming a copper-containing complex and uses thereof” (COLD SPRING HARBOR LABORATORY, priority 2017, dated 2024).
“Also recorded” adds a separate entry of the source.

Key:
[1] = ESI-MS analysis of complex formation with a series of other metal ions; assay type: binding; conditions: panel of metals
Description: Eight equivalents of M(NO3)2·xH2O or MSO4·xH2O were reacted with 1 eq. of DPM-1001, DPM-1003 or analog 2 (1 mM in H2O). The reaction solutions were stirred at RT, 40° C. and 80° C. for 2 h. Each sample was diluted 5-fold in 50% methanol, 0.1% formic acid and loaded into a 500 μL syringe. A Thermo Vantage triple quadrupole mass spectrometer (Thermo Scientific), equipped with an HESI spray source was coupled to an Accela HPLC system (Thermo Scientific). Mobile phase A consisted of 0.1% formic acid and mobile phase B consisted of 0.1% formic acid in methanol. Isocratic flow was set to 50% B at 200 μL/min. 200 μl samples were injected into the LC flow line via syringe pump at 10 μL/min and electrosprayed into the Vantage triple quadrupole mass spectrometer. A spray voltage of 4.3 kV was used along with a capillary temperature of 350° C. Each full MS scan was 0.5 s and data were collected with a scan range of 200 m/z to 900 m/z over 1 min.

metallothionein = assay: Metallothionein quantitation in liver and brain; assay type: in vivo, mouse; conditions: TX mice
Description: Tissue samples (100 mg liver or 25 mg brain) were rinsed in PBS to remove excess blood and homogenized using a dounce homogenizer on ice (PBS, 1% tween). The samples were centrifuged at 5000×g for 5 minutes and the supernatant was collected. Total protein in the supernatant was measured using Bradford reagent and an equal amount of each sample (based on protein concentration) was used to measure metallothionein levels. Mouse metallothionein Elisa kit was purchased from Lifespan Biosciences, Inc and the assay was performed according to the users manual.

PTP1B1-321 = molecular target: T1, PTP1B1-321 (Homo sapiens, UniProt P18031); assay: PTP1B phosphatase activity assay, short form; assay type: biochemical
T1 construct: C-terminally truncated PTP1B (1-321); made in house; host or cells: Escherichia coli BL21 (DE3)-RIL
T1 sequence (P18031 1-321): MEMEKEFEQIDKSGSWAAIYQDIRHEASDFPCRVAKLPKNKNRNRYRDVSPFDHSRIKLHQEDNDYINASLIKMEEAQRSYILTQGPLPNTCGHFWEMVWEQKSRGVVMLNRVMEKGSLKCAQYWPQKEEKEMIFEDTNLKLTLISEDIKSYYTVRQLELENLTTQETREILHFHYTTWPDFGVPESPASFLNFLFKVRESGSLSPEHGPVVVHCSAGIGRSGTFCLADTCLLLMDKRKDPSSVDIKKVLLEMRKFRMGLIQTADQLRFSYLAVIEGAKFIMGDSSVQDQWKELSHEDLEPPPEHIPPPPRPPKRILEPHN
Description: All common reagents were obtained from Thermo Fisher Scientific (Waltham, MA) or Sigma-Aldrich (St. Louis, MO). Difluoro-4-methylumbelliferyl phosphate (DiFMUP) was obtained from Invitrogen (cat #D22065). Solid black 384-well plates (cat #3573) for phosphatase assays were from Corning Incorporated (Corning, NY).
Wild-type PTP1B containing a His-tag was expressed in Escherichia coli BL21 (DE3)-RIL using LB. Cells were resuspended in lysis buffer (50 mM Hepes pH 7.2, 150 mM NaCl, 10 mM imidazole, 2 mM TCEP) with cOmplete EDTA-free Protease Inhibitor Cocktail (Roche), and then lysed using a sonicator at 4° C. Lysates were clarified by centrifugation. Initial protein purification was by gravity flow, nickel column chromatography. Protein was used immediately or stored at −80° C. in 50 mM HEPES pH 7.4, 100 mM NaCl, 2 mM dithiothreitol and 25% glycerol.

TX mice [2] = assay: Tissue and fecal copper levels (ICP-MS, rhodanine staining); assay type: in vivo, mouse
Description: (§1) C3He-Atp7b^tx-j were obtained from the Jackson laboratory. All animal experiments were performed according to protocols approved by the Institutional Animal Use and Care Committee of Cold Spring Harbor laboratory. Mice were injected intraperitoneally (i.p.) with vehicle, or administered DPM-1001 intraperitoneally or orally at 5 mg/kg once every third day, for over a year. At the end of the study animals were euthanized and tissue samples were removed for biochemical studies.
Tissue samples from wild-type or TX mice treated with saline, DPM-1001 or tetrathiomolybdate was washed three times with PBS containing 1 mM EDTA (to remove nonspecifically bound copper). Then, 215 μl of concentrated nitric acid (BDH Aristar Ultra) was added to each sample and incubated overnight. Samples were boiled at 95° C. for 1 h. and approximately 150 μl of each sample was further diluted in 2 ml 2% nitric acid (made freshly from concentrated nitric acid and Milli-Q water) Samples were analyzed on a Thermo Fisher iCAP Qc ICP mass spectrometer in kinetic energy discrimination (KED) mode against a calibration curve of known copper and phosphorus concentrations, with Ga (20 μg/l, Inorganic Ventures) as an internal standard, Each experiment was carried out twice and each condition was repeated in at least triplicate.
Liver tissues from wild-type and TX mice from untreated and DPM-1001-treated mice were sectioned and stained with H&E or rhodanine. Whole-slide, digitized images of H&E-stained tissue were captured using the Aperio ScanScope XT automated scanning system (Vista, CA). Image J software was used to quantitate rhodanine staining.

TX mice [3] = assay: Survival and tolerability in the TX mouse model of Wilson's disease; assay type: in vivo
Description: as §1

SNU116 cells = assay: Cell survival; assay type: cell-based
Description: The MTT assay was used to evaluate cell survival in the absence and presence of different compounds. The thiazolyl blue tetrazolium bromide (MTT) was dissolved in phosphate buffered saline (PBS) at a concentration of 5 mg/ml, filtered, and stored at 4° C. About 10,000 cells were seeded into a 96-well plate and cultured in growth medium containing serum. After 24 hours, cells were treated with the indicated concentrations of DPM-1001 or DPM-1003 (0-100 uM) for 2 hrs. Following which 20 μl MTT was added into each well. An ELISA plate reader (Biotek, Winooski, Vermont, USA) was used to measure the optical density at 490 nm.

MDA-MB-231 cells = assay: MDA-MB-231 orthotopic xenograft; assay type: in vivo, SCID-beige mice; conditions: mice with TNBC xenograft, 5 mg/kg intraperitoneally every day
Description: MDA-MB-231 cells (2×10^6) were injected orthotopically into mammary fat pads of SCID-beige mice (Tectonic lab) in 15 μl of a 1:1 mixture with DMEM and growth factor-reduced Matrigel (BD Biosciences). The animals were randomly assigned to three groups to receive saline (control), DPM-1001 (5 mg/kg) or DPM-1003 (5 mg/kg) intraperitoneally everyday once the tumors reached about 200 mm^3. Tumor growth was monitored every third day and volume in mm^3 was measured three times weekly by palpation using the formula: volume=width^2×length/2. Once the tumor volume reached above 500 mm^3 in saline treated mice, the study was terminated. Tumors from all mice were removed for biochemical analysis.

## COC(=O)CCC(C)C1CCC2C3C(O)CC4CC(NCCCCNCc5ccccn5)CCC4(C)C3CCC12C (stereo not shown) [DPM-1001]
[1]
  complex formation with other metals: none formed a complex with the compound
metallothionein
  metallothionein levels: prevents elevated metallothionein expression in liver; also recorded: lowered metallothionein levels in the liver and the brain
PTP1B1-321; enzyme-inhibitor complex diluted, activity recovery monitored
  reversibility of inhibition of PTP1B1-321: reversibly
PTP1B1-321; varying incubation times
  time dependent change in the IC50 for PTP1B1-321: no obvious time dependent change
TX mice [2]; TX mice
  copper levels in feces: dramatically elevated
  rhodanine staining of liver: no obvious staining for rhodanine
TX mice [2]; TX mice, ICP-MS
  copper levels in liver and brain: inhibits copper accumulation in liver and brain; also recorded: lowered the levels of copper in both tissues; also recorded: as effective as tetrathiomolybdate in removing copper from the liver and brain
TX mice [2]; TX mice, listed as DMP-1001
  copper levels in feces: elevated copper levels in feces
TX mice [2]; wild-type and TX mice, ICP-MS
  copper levels in kidney: does not promote accumulation of copper in the kidney; also recorded: no significant differences
TX mice [2]; wild-type mice
  rhodanine staining of liver: No signal was detected
TX mice [3]; 5 mg/kg, every third day
  longevity of TX mice (in words): prolongs their life
TX mice [3]; TX mice
  survival at one year of age: 90%
TX mice [3]; wild-type mice
  survival at one year of age: 100%
TX mice [3]; wild-type or TX mice
  toxic side-effects of prolonged treatment: did not have overt toxic side-effects
SNU116 cells
  survival of SNU116 cells: inhibited survival; also recorded: inhibitory effect
MDA-MB-231 cells
  tumor volume / tumor size: reduced tumor volume; also recorded: inhibition of tumor size; also recorded: shrank the size of such tumors
